# Laboratory results published in patent publication US20230181540A1, “COMPOSITIONS AND METHODS FOR ACTIVATING SIGNALING THROUGH THE CB2 CANNABINOID RECEPTOR FOR TREATING AND PREVENTING LYSOSOMAL STORAGE DISEASES AND DISORDERS” (Wylder Nation Foundation, priority 2020, published 2023).
# Entries after “also recorded” stand apart in the source; their conditions may differ.
# Legend:
# MCP-1 [1] = assay: MCP-1 released into culture media by skin fibroblasts from a patient with MPS IIIA (ELISA); assay type: cell-based, human; settings: 3.2 micromoles/ml, 72 or 96 hr, vs cultures without drug, p < 0.01
# Experimental: Skin fibroblasts from a patient with MPS IIIA were grown to ~70% confluency and the CB2 agonists JHW133 and PM226 were added to the culture media for 72 or 96 hr at a dose of 3.2 micromoles/ml (black and gray bars, respectively). Control: cultures without drug added (white bars). […] Bar heights indicate the mean values from three independent experiments. Vertical lines indicate the standard error of the mean. * = p < 0.01 comparing with and without drug.
# [2] = system: mouse model of Niemann-Pick diseases type C1 (NPC1); settings: cited from earlier work
# [3] = system: mouse model of Sanfilippo disease (mucopolysaccharidosis IIIA); settings: cited from earlier work
# Farber mice = assay: Survival and body weight of Farber mice treated with CB2 agonist
# Experimental: Two Farber mouse groups were studied (n=12 mice per group). […] In the control group they were injected with DMSO alone. Weight was monitored daily.
# MCP-1 [4] = assay: MCP-1 expression in liver and plasma of Farber disease mice; assay type: in vivo, mouse; settings: 5 mg/kg i.p. 3x a week for 6 weeks, vs untreated Farber mice
# Experimental: (§1) Ten 2.5-week-old Farber disease mice were treated 3x a week by intraperitoneal injection of JWH133 at a dose of 5 mg/kg. After 6 weeks the 8.5-week-old mice were euthanized and their organs and plasma collected and processed for immunohistochemical analysis of MCP-1 expression. […] Thus, CB2 agonists, such as JWH133, can be used to treat Farber disease and other lysosomal storage disorders (* = p<0.01).
# CB2 = assay: Immunohistochemical analysis of CB2 expression in organs of Farber disease mice; assay type: in vivo, mouse; settings: 5 mg/kg i.p. 3x a week for 6 weeks, 8.5-week-old, vs untreated Farber mice
# Experimental: Ten 2.5-week-old Farber disease mice were treated once weekly with recombinant acid ceramidase by intraperitoneal injection at a dose of 10 mg/kg. After 6 injections the 8.5-week-old mice were euthanized and their organs collected and processed for immunohistochemical analysis of CB2 expression. […] Thus, CB2 can be used as a biomarker to monitor the efficacy of treatment for Farber disease and other lysosomal storage disorders.
# as §1, with “organs” for “organs and plasma”, “CB2” for “MCP-1”, “disorders.” for “disorders (* = p<0.01).”
molecule,measurement,setting,value
CCCCCCC(C)(C)c1cc(OC)c2c(c1)OC(C)(C)c1cnoc1-2 [PM226],levels of MCP-1 released into the culture media,MCP-1 [1],able to reduce the levels of MCP-1 released into the culture media
CC(=O)Oc1ccccc1C(=O)O [aspirin],treatment efficacy,[2],failed to show treatment efficacy
same,expression of inflammation-related genes,[3]; chronic treatment for 6 months with high doses,normalize expression of some inflammation-related genes
pentosan polysulfate [PPS],CNS pathology,"[3]; mouse model of MPS IIIA, attributed to systemic effects",some improvements in CNS pathology were noted
CCCC(C)(C)c1ccc2c(c1)OC(C)(C)[C@@H]1CC=C(C)C[C@@H]21 [JWH133],levels of MCP-1 released into the culture media,MCP-1 [1],able to reduce the levels of MCP-1 released into the culture media
same,day of natural death in the treatment group,"Farber mice; Farber mice, 5 mg/kg i.p. three times a week from 2 weeks of age",47 days
same,survival / life span,"Farber mice; Farber mice, 5 mg/kg i.p. three times a week in DMSO from 2 weeks of age, vs vehicle control (all dead by day 44)",survived longer than vehicle control treated mice
same,body weight,"Farber mice; Farber mice, 5 mg/kg i.p. three times a week, throughout the study, vs vehicle alone, 5 mg/kg",significantly greater; also recorded: significant prevention of weight loss
same,number of mice that died naturally in the treatment group,"Farber mice; of 12 Farber mice, 5 mg/kg i.p. three times a week, remaining 11 euthanized at day 58",1
same,MCP-1 expression in the liver,MCP-1 [4],significantly reduced
same,MCP-1 expression in plasma,MCP-1 [4]; p<0.01,significantly reduced
same,CB2 expression (immunohistochemistry),CB2,significantly reduced
CC(C)Cc1ccc(C(C)C(=O)O)cc1 (centres unmarked) [ibuprofen],lifespan,[2]; high doses,prolong the lifespan of the mice by about two weeks
same,onset of clinical signs,[2]; high doses,modestly slow the onset of clinical signs
